Results from the supplement of paper PMC5908809.

What was measured:
SNK-6 (IL-2 2.5 ng/mL) [1] = assay: drug sensitivity score (DSS) (DSS units); higher = more sensitive; extreme values may be limits of the assay; settings: 72 h
KAI3 (IL-2 2.5 ng/mL) [2] = assay: as above; settings: 72 h
[3] = test system: normal primary NK cells, pool 3 (3 donors) (IL-2 2.5 ng/mL); assay: as above; settings: 72 h
NK-YS (IL-2 2.5 ng/mL) [4] = assay: as above; settings: 72 h
[5] = test system: normal primary NK cells, pool 2 (3 donors) (IL-2 2.5 ng/mL); assay: as above; settings: 72 h
KHYG-1 (IL-2 2.5 ng/mL) [6] = assay: as above; settings: 72 h
DERL-7 (IL-2 2.5 ng/mL) [7] = assay: as above; settings: 72 h
NK-92 (IL-2 2.5 ng/mL) [8] = assay: as above; settings: 72 h
[9] = test system: normal primary NK cells, pool 1 (3 donors) (IL-2 2.5 ng/mL); assay: as above; settings: 72 h
[10] = test system: normal primary NK cells, pool 1 (3 donors), resting (IL-2 0 ng/mL); assay: as above; settings: 72 h
IMC-1 (IL-2 20 ng/mL) [11] = assay: as above; settings: 72 h
YT (IL-2 2.5 ng/mL) [12] = assay: as above; settings: 72 h
NKL (IL-2 2.5 ng/mL) [13] = assay: as above; settings: 72 h
SNK-6 (IL-2 2.5 ng/mL) [14] = assay: percent inhibition of viability; higher = more inhibition; settings: 72 h
KAI3 (IL-2 2.5 ng/mL) [15] = assay: as above; settings: 72 h
[16] = test system: normal primary NK cells, pool 3 (3 donors) (IL-2 2.5 ng/mL); assay: as above; settings: 72 h
NK-YS (IL-2 2.5 ng/mL) [17] = assay: as above; settings: 72 h
[18] = test system: normal primary NK cells, pool 2 (3 donors) (IL-2 2.5 ng/mL); assay: as above; settings: 72 h
KHYG-1 (IL-2 2.5 ng/mL) [19] = assay: as above; settings: 72 h
DERL-7 (IL-2 2.5 ng/mL) [20] = assay: as above; settings: 72 h
NK-92 (IL-2 2.5 ng/mL) [21] = assay: as above; settings: 72 h
[22] = test system: normal primary NK cells, pool 1 (3 donors) (IL-2 2.5 ng/mL); assay: as above; settings: 72 h
[23] = test system: normal primary NK cells, pool 1 (3 donors), resting (IL-2 0 ng/mL); assay: as above; settings: 72 h
IMC-1 (IL-2 20 ng/mL) [24] = assay: as above; settings: 72 h
YT (IL-2 2.5 ng/mL) [25] = assay: as above; settings: 72 h
NKL (IL-2 2.5 ng/mL) [26] = assay: as above; settings: 72 h
[27] = test system: normal NK cells expanded with K562-aAPC; assay: drug sensitivity score (DSS) (DSS units); higher = more sensitive; extreme values may be limits of the assay; settings: 72 h; IL-2 2.5 ng/mL
Procedure: (§1)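 Drug sensitivity and resistance testing on K562-aAPC-expanded normal NK cells: 5 concentrations (10-fold steps over a 10,000-fold range), 72 h at 37 °C, viability by CellTiter-Glo normalised to DMSO and benzethonium chloride controls; DSS from the fitted curve.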

[28] = test system: normal NK cells expanded with K562-aAPC; assay: percent inhibition of viability; higher = more inhibition; settings: 72 h, IL-2 2.5 ng/mL
Procedure: as §1

COc1cc2c(cc1O)CC[C@@H]1[C@@H]2CC[C@]2(C)[C@@H](O)CC[C@@H]12 [2-methoxyestradiol] (max concentration tested 10000 nM)
Settings	drug sensitivity score
DERL-7 (IL-2 2.5 ng/mL) [7]	14.2
IMC-1 (IL-2 20 ng/mL) [11]	12.8
KAI3 (IL-2 2.5 ng/mL) [2]	9.37
KHYG-1 (IL-2 2.5 ng/mL) [6]	17.6
NK-92 (IL-2 2.5 ng/mL) [8]	21.1
NK-YS (IL-2 2.5 ng/mL) [4]	15
NKL (IL-2 2.5 ng/mL) [13]	17.5
SNK-6 (IL-2 2.5 ng/mL) [1]	14
YT (IL-2 2.5 ng/mL) [12]	15.9
[3]	0
[5]	0.33
[9]	1.6
[10]	1.87
[27]	4.38

percent inhibition of viability [%]
Settings	1 nM	10 nM	100 nM	1000 nM	10000 nM
DERL-7 (IL-2 2.5 ng/mL) [20]	-1.82	1.54	2.89	73.2	98.9
IMC-1 (IL-2 20 ng/mL) [24]	-3.9	0.72	-4.99	63.4	98.5
KAI3 (IL-2 2.5 ng/mL) [15]	-6.2	-3.7	1.79	50	57.4
KHYG-1 (IL-2 2.5 ng/mL) [19]	-6.84	-2.25	-0.37	97.8	97.9
NK-92 (IL-2 2.5 ng/mL) [21]	-11.8	-5.92	24.8	96.2	92.4
NK-YS (IL-2 2.5 ng/mL) [17]	-6.42	-2.65	5.43	77.6	66
NKL (IL-2 2.5 ng/mL) [26]	-3.96	-6.41	12.5	85.8	90.6
SNK-6 (IL-2 2.5 ng/mL) [14]	15.9	5.08	4.83	72.8	66.2
YT (IL-2 2.5 ng/mL) [25]	-5.93	2.82	1.11	86.5	92.7
[16]	-10.4	-14	-8.74	-10.1	2.72
[18]	-5.21	-10.5	-5.24	0.1	16.3
[22]	-5.08	0.22	-0.63	10	19.8
[23]	-17.5	-7.16	17.8	3.53	29.8
[28]	-7.6	-11.6	-10.8	9.36	53

CC(=O)c1c(C)c2cnc(Nc3ccc(N4CCNCC4)cn3)nc2n(C2CCCC2)c1=O [Palbociclib] (max concentration tested 10000 nM)
Settings	drug sensitivity score
DERL-7 (IL-2 2.5 ng/mL) [7]	8.89
IMC-1 (IL-2 20 ng/mL) [11]	6.58
KAI3 (IL-2 2.5 ng/mL) [2]	3.18
KHYG-1 (IL-2 2.5 ng/mL) [6]	16.8
NK-92 (IL-2 2.5 ng/mL) [8]	5.65
NK-YS (IL-2 2.5 ng/mL) [4]	9.09
NKL (IL-2 2.5 ng/mL) [13]	9.37
SNK-6 (IL-2 2.5 ng/mL) [1]	0
YT (IL-2 2.5 ng/mL) [12]	6.16
[3]	3.41
[5]	4
[9]	3.66
[10]	2.9
[27]	7.9

percent inhibition of viability [%]
Settings	1 nM	10 nM	100 nM	1000 nM	10000 nM
DERL-7 (IL-2 2.5 ng/mL) [20]	-8.16	4.2	8.47	32.2	90.9
IMC-1 (IL-2 20 ng/mL) [24]	-2.52	-7.06	-2.86	6.43	101
KAI3 (IL-2 2.5 ng/mL) [15]	-3.55	-10.6	-0.36	0.62	57.6
KHYG-1 (IL-2 2.5 ng/mL) [19]	-0.2	2.78	14.7	81.5	91.9
NK-92 (IL-2 2.5 ng/mL) [21]	6.01	-5.34	15.5	12.9	65.7
NK-YS (IL-2 2.5 ng/mL) [17]	2.65	4.48	17.3	37.1	61.5
NKL (IL-2 2.5 ng/mL) [26]	-10.3	-8.16	-14.5	25	104
SNK-6 (IL-2 2.5 ng/mL) [14]	27.7	15.6	28.3	9.56	32.5
YT (IL-2 2.5 ng/mL) [25]	2.18	0.66	6.83	31.3	37
[16]	-13.2	-11.6	6.3	-3.24	67
[18]	-10.6	-5.61	1.26	2.75	66.1
[22]	-11.6	-7.3	-7.79	-6.34	74.7
[23]	6.42	-17.5	-3.52	-17	68.2
[28]	1.29	2.27	11	16.3	94.1
